Assay results from US7119089B2, “Phenothiazine kinesin inhibitors” (Cytokinetics, Inc., priority 2001, dated 2006).

Key:
A549 cells = conditions: data provided by National Cancer Institute; cited from earlier work
[1] = tested on: Skov-3 cells (human ovarian cancer); test: FACS analysis of cell cycle stage by DNA content (mitotic arrest); format: cell-based; conditions: 24 hours treatment, paclitaxel at 10 nM
Method: FACS analysis to determine cell cycle stage by measuring DNA content was performed as follows. Skov-3 cells (human ovarian cancer) were split 1:10 for plating in 10 cm dishes and grown to subconfluence with RPMI 1640 medium containing 5% fetal bovine serum (FBS). The cells were then treated with either 10 nM paclitaxel, the test compound or 0.25% DMSO (vehicle for compounds) for 24 hours. Cells were then rinsed off the plates with PBS containing 5 mM EDTA, pelleted, washed once in PBS containing 1% FCS, and then fixed overnight in 85% ethanol at 4° C. Before analysis, the cells were pelleted, washed once, and stained in a solution of 10 μg propidium iodide and 250 μg of ribonuclease (RNAse) A per milliliter at 37° C. for half an hour. Flow cytometry analysis was performed on a Becton-Dickinson FACScan, and data from 10,000 cells per sample was analyzed with Modfit software.

## O=c1[nH]cc(F)c(=O)[nH]1 [5-fluorouracil]
A549 cells
  GI50: 1000 nM

## COc1cccc2c1C(=O)c1c(O)c3c(c(O)c1C2=O)C[C@@](O)(C(=O)CO)C[C@@H]3O[C@H]1C[C@H](N)[C@H](O)[C@H](C)O1 [doxorubicin]
A549 cells
  GI50: 63 nM

## NC(=O)NO [hydroxyurea]
A549 cells
  GI50: 500000 nM

## CC(=O)O[C@H]1C(=O)[C@@]2(C)[C@H]([C@H](OC(=O)c3ccccc3)[C@]3(O)C[C@H](OC(=O)[C@H](O)[C@@H](NC(=O)c4ccccc4)c4ccccc4)C(C)=C1C3(C)C)[C@]1(OC(C)=O)CO[C@@H]1C[C@@H]2O [paclitaxel]
[1]
  shift in the population of cells from G0/G1 cell cycle stage (2n DNA content) to G2/M cell cycle stage (4n DNA content): caused a shift in the population of cells from a G0/G1 cell cycle stage (2n DNA content) to a G2/M cell cycle stage (4n DNA content)
A549 cells
  GI50: 4 nM
